Patent publication US7205329B2, “Modulators of CRTH2 activity” (Microbia, Inc., priority 2003, dated 2007)

How the values were obtained:
neutrophils = test: CD11b expression assay, neutrophil control for CRTH2 agonist activity; type: cell-based, human; conditions: leukocytes incubated with test compound 10 min at room temperature; flow cytometry
Text: CRTH2 agonists increase the expression of CD11b on eosinophils. […] They do, however, express receptors for other lipid mediators, including 5-oxo-6,8,11,14-eicosatetraenoic acid (5-oxo-ETE), leukotriene B4 (LTB4), and platelet activating factor. Therefore, any increased expression of CD11b by neutrophils is likely to be caused by an activity other than activation of CRTH2. Accordingly, preferred compounds increase CD11b expression on eosinophils, but not on neutrophils.
The potential CRTH2 agonist activity of certain compounds was tested using a CD11b expression assay using essentially the method described by Monneret et al. (J Pharmacol Exp Ther 304:349–55, 2003), and the results of this analysis are presented in FIG. 1 where the results of two separate experiments are reported.
Briefly, leukocytes (0.5 ml; 10^6/ml cells) in PBS containing 0.9 mM CaCl2 and 0.5 mM MgCl2) were incubated with a test compound at room temperature for 10 min. The incubations were terminated by the addition of ice-cold FACSFlow (BD Biosciences; Cat# 342003) and centrifugation (400 g for 5 min at 4° C.). […] The distribution of fluorescence intensities among 60,000 cells was measured by flow cytometry. Eosinophils were gated out on the basis of their granularity (high side scatter) and labeling with VLA-4 (PE fluorescence). CD11b was then measured in the eosinophil region on the basis of fluorescence due to FITC. […]

CCR3 = conditions: Stubbs et al. 2002, J Biol Chem 277:26012–26020; cited from earlier work

CCCCCC=CCC=CCC=CC=CC(=O)CCCC(=O)O [5-oxo-ETE, 5-oxo-6,8,11,14-eicosatetraenoic acid]
expression of CD11b on neutrophils (neutrophils): increased expression of CD11b on neutrophils

COc1ccc2c(c1)c(CC(=O)O)c(C)n2C(=O)c1ccc(Cl)cc1 [indomethacin]
expression of CCR3, the receptor for eotaxin (CCR3): reduces expression of CCR3
